# Data published in ChEMBL document CHEMBL1201862, “PubChem BioAssay data set” (2004).
# The source made the active and inactive calls.
# Key:
# [1] = test system: Escherichia coli; experiment: microbe, parasite or virus in culture
# [2] = test system: Escherichia coli; experiment: microbe, parasite or virus in culture; remark: listed apart in the source
# [3] = decrease of insulin promoter-GFP reporter – imaging, high-content screening, mouse beta cells (AID 1628); type: functional; conditions: MIN6
# [4] = MIN6 cell viability loss – mouse insulinoma, cytotoxicity control, dose response (AID 2122); type: functional;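 note: confirmatory high-throughput counterscreen run to flag cytotoxic compounds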
# [5] = HEK-293T viability loss after treatment – luminescence, T-cell screen hits, cytotoxicity control for TCR NF-kB inhibitor project, dose response (AID 489026); type: functional, cell-based;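 note: cells exposed to compound about 14 hours before the viability readout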
# [6] = test system: INS1; experiment: INS-1E survival protection against cytokine death – cell-based, luminescence, retest, dose response (AID 449756); type: functional; conditions: Rattus norvegicus;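 note: cell death triggered by IL-1 beta plus TNF-alpha plus IFN-gamma mixture; protective hits raise ATP signal compared with cytokine alone wells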
# [7] = reduction of Shn3 3'UTR-driven luciferase in osteoblasts – cell-based, Clone20 osteoblasts, firefly luciferase, cherry-picked, dose response (AID 624132); type: functional;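 note: firefly luciferase luminescence from reporter carrying the Shn3 3'UTR in osteoblasts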
# [8] = loss of viability in HepG2 cells – cell-based, CellTiter-Glo, cherry-picked, cytotoxicity control for Shn3 inhibitor project, dose response (AID 624134); type: functional
# [9] = non-specific 3'UTR reporter inhibition in Clone20-Shn3RL – cell-based, Renilla luciferase, cherry-picked, counter-screen for Shn3 inhibitor project, dose response (AID 624133); type: functional
# [10] = target: T1, COUP transcription factor 2 (Homo sapiens, UniProt P24468); experiment: Luminescence-based cell-based high throughput dose response assay to identify inhibitors of COUP-TFII (NR2F2).; type: functional;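 note: HEK293 cells transiently cotransfected with COUP-TFII expression vector and reporter; luciferase reporter luminescence driven by COUP-TFII from the pX2-168 reporter plasmid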
# T1 sequence (P24468 whole entry): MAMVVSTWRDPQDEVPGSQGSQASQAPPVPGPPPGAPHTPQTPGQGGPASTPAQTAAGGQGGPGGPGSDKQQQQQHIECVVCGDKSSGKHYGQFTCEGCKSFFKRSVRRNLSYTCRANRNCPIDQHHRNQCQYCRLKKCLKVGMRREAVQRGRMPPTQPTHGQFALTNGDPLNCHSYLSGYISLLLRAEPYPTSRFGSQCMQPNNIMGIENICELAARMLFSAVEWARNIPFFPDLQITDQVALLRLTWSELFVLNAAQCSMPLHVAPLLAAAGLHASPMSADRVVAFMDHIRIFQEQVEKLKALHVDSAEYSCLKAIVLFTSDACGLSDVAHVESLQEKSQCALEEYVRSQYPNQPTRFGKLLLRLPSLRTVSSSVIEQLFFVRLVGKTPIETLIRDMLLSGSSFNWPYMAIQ
# [11] = target: Trypsin (Sus scrofa, UniProt P00761); experiment: trypsin protease activity blockade – biochemical, quenched peptide fluorescence, cherry-pick, selectivity assay for Rce1 protease inhibitor project, dose response (AID 488789)
# Sequence of Trypsin (P00761 whole entry): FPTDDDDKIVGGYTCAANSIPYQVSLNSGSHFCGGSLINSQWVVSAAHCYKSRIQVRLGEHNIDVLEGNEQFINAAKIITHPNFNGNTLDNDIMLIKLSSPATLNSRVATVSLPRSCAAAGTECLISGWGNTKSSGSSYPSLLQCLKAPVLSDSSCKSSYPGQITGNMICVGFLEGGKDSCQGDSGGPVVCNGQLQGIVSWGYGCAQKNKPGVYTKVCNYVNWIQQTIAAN
# [12] = target: T2, CAAX prenyl protease 2 (Saccharomyces cerevisiae S288c, UniProt Q03530); type: biochemical
# T2 sequence (Q03530 whole entry): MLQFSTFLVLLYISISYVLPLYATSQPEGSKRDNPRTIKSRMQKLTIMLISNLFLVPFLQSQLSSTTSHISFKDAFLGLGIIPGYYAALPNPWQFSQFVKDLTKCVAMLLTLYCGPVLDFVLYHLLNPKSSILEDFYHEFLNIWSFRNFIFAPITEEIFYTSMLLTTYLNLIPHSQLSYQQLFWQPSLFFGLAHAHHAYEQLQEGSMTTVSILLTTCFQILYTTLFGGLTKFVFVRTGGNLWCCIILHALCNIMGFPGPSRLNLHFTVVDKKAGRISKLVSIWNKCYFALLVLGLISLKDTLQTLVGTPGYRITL
# [13] = target: CAAX prenyl protease 2 (Homo sapiens, UniProt Q9Y256); experiment: inhibition of Ras-converting CAAX protease Rce1 – biochemical, yeast membranes, quenched-peptide fluorescence, cherry-pick, dose response (AID 588849)
# Sequence of CAAX prenyl protease 2 (Homo sapiens, UniProt Q9Y256) (Q9Y256 whole entry): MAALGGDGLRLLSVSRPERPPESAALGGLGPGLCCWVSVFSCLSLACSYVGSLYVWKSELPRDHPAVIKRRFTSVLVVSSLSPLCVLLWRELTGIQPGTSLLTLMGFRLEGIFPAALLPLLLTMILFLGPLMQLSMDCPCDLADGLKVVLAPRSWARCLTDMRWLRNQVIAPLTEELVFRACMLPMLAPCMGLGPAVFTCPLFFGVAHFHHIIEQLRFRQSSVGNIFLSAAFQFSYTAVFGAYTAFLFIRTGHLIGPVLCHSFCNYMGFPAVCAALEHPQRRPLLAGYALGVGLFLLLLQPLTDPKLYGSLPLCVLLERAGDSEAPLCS
# [14] = test system: H9c2; experiment: cells; type: functional, cell-based; conditions: Rattus norvegicus, H9c2, Myocardium;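 note: confirmatory concentration-response retest of ultra-high-throughput screening hits for modulation of myocardial damage; cell death induced by hydrogen peroxide oxidative stress; compound pretreatment for 60 min then peroxide exposure for 2 h; potency is for protecting the cells against peroxide damage rather than for killing them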
# [15] = target: T3, Short transient receptor potential channel 4 (Mus musculus, UniProt Q9QUQ5); experiment: calcium entry via TRPC4 opening agents – cell-based, HEK293 TRPC4/mu-opioid, Fluo-4 calcium, dose response (AID 434937); type: functional
# T3 sequence (Q9QUQ5 whole entry): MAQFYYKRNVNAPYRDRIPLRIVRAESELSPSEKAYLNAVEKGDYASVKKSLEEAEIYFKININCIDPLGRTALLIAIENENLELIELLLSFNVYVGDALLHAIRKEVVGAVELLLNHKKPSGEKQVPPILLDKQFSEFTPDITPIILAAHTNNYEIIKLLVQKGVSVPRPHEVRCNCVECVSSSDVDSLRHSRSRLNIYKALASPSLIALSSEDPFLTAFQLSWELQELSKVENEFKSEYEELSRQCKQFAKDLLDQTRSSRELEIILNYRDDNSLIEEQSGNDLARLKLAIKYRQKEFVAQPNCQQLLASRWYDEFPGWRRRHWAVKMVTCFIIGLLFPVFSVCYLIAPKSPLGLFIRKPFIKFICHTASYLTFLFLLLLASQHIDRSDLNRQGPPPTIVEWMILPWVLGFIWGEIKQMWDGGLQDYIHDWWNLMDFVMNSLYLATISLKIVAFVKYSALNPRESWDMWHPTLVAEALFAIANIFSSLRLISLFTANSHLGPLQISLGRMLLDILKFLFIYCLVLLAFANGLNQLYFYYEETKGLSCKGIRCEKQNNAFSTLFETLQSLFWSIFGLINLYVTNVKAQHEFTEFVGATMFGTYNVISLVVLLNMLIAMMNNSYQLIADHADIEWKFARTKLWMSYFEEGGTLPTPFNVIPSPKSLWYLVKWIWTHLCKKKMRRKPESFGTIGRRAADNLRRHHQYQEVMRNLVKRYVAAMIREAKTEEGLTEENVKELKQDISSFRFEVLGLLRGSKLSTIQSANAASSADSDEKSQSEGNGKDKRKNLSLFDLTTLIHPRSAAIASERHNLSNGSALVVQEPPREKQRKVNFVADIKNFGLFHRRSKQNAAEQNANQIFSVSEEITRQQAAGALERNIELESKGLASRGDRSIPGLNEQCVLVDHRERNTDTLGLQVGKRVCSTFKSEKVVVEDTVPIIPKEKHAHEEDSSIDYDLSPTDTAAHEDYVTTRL
# [16] = target: Delta-type opioid receptor (Homo sapiens, UniProt P41143); experiment: Counterscreen for agonists of heterodimerization of the mu 1 (OPRM1) and delta 1 (OPRD1) opioid receptors: Luminescence-based cell-based high throughput dose response assay to identify agonists of OPRD1 homodimerization. [Related pubchem assays (depositor defined):AID504326, AID504355, AID504692, AID504904, AID504905]; type: functional
# Sequence of Delta-type opioid receptor (P41143 whole entry): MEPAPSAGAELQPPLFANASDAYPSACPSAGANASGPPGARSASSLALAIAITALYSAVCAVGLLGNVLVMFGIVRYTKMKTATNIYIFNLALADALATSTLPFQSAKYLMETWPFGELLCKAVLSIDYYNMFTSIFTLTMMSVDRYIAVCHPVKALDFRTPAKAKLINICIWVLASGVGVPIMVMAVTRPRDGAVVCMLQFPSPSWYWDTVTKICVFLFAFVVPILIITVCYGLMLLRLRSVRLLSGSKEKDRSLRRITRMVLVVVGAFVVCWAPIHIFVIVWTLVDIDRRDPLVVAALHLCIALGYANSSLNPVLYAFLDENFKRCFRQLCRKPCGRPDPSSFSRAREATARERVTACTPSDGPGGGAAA
# [17] = target: Mu-type opioid receptor (Homo sapiens, UniProt P35372); experiment: Counterscreen for agonists of heterodimerization of the mu 1 (OPRM1) and delta 1 (OPRD1) opioid receptors: Luminescence-based cell-based high throughput dose response assay to identify agonists of OPRM1 homodimerization.; type: functional;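 note: U2OS cells expressing OPRM1 and beta-arrestin as split beta-galactosidase partners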
# Sequence of Mu-type opioid receptor (P35372 whole entry): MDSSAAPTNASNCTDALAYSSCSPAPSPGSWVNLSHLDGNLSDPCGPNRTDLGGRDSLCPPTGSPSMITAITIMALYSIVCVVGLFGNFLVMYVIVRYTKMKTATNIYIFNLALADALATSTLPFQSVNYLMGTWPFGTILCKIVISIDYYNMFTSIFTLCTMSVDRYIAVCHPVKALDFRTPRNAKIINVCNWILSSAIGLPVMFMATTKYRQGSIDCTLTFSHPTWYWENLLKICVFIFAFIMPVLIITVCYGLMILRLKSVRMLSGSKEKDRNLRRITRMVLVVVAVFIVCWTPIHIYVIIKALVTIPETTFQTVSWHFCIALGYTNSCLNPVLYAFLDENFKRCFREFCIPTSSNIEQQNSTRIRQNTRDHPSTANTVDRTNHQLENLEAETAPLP
# [18] = target: 5-hydroxytryptamine receptor 5A (Homo sapiens, UniProt P47898); experiment: Counterscreen for agonists of OPRM1-OPRD1 heterodimerization: luminescence-based cell-based high throughput dose response assay to identify agonists of 5-hydroxytryptamine (serotonin) 5A receptor (HTR5A). [Related pubchem assays (depositor defined):AID504326, AID504355, AID504692, AID504904, AID504905]; type: functional
# Sequence of 5-hydroxytryptamine receptor 5A (P47898 whole entry): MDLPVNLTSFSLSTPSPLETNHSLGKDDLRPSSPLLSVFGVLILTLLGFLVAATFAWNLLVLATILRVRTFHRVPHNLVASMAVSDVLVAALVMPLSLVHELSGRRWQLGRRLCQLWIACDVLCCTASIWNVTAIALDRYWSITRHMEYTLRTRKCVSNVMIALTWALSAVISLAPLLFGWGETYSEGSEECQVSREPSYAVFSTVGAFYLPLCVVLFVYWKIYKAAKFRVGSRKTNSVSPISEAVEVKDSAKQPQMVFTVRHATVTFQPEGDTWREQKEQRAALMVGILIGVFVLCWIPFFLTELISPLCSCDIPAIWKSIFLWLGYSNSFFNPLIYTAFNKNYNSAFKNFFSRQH
structure (smiles),measurement,setting,value
CC(C)(C)NC(=O)c1nn(Cc2ccccc2)c(=O)c2ccccc12,AC50,[1],29.1 µM (active)
same,AC50,[2],53.2 µM (active)
CCC1CCCCN1C(=O)c1cc(COc2ccc3ncccc3c2)on1 (centres undefined),IC50,[3],0.444 µM (active)
same,IC50,[4],0.339 µM (active)
same,IC50,[5],> 80 µM (inactive)
same,AC50,[6],1.89 µM (active)
same,AC50,[7],0.46 µM (active)
same,AC50,[8],2.06 µM (active)
same,AC50,[9],1.15 µM (active)
same,IC50,[10],4.58 µM (active)
CCc1cc(=O)oc2c(C)c(OC(C)C(=O)NC3CC(C)(C)NC(C)(C)C3)ccc12 (centres undefined),AC50,[11],14.1 µM (active)
same,AC50,[12],17.5 µM (active)
same,AC50,[13],17 µM (active)
COc1cccc(-c2nn3c(-c4ccccn4)nnc3s2)c1,IC50,[14],16.5 µM (active)
same,AC50,[2],192 µM (active)
Cc1ccccc1NC(S)=NCC(c1cccnc1)N(C)C (centres undefined),EC50,[15],0.0427 µM (active)
same,EC50,[16],74.6 µM (inactive)
same,EC50,[17],12.5 µM (inactive)
same,EC50,[18],> 92.5 µM (inactive)
